Measurements taken from patent US9493455B2, “Azaindole derivatives as inhibitors of protein kinases” (ORIBASE PHARMA, priority 2012, dated 2016).

Legend:
SRC = molecular target: T1, SRC (Homo sapiens, UniProt P12931); test: In vitro kinase assay (Z′-LYTE); format: biochemical; conditions: read-out: % of inhibition of the kinase compared to the control
T1 construct: purchased Invitrogen
Description: (§1) The inhibitory activity of the compounds on several kinases including BRAF, EGFR (ErbB1), EGFR (ErbB1) T790M L858R, FGFR2, KDR (VEGFR2), PDGFRA (PDGFR alpha), SRC and other was evaluated by Invitrogen using the Z′-LYTE® technology. Briefly, the Z′-LYTE® biochemical assay employs a fluorescence-based, coupled-enzyme format and is based on the differential sensitivity of phosphorylated and non-phosphorylated peptides to proteolytic cleavage. The peptide substrate is labeled with two fluorophores—one at each end—that make up a FRET pair. A ratiometric method, which calculates the ratio (the Emission Ratio) of donor emission to acceptor emission after excitation of the donor fluorophore at 400 nm, is used to quantitate reaction progress.
(§2) The compounds are screened in 1% DMSO (final) in the well. For 10 point titrations, 3-fold serial dilutions are conducted from the starting concentration. All Peptide/Kinase Mixtures are diluted to a 2× working concentration in the appropriate Kinase Buffer. All ATP Solutions are diluted to a 4× working concentration in Kinase Buffer (50 mM HEPES pH 7.5, 0.01% BRIJ-35, 10 mM MgCl2, 1 mM EGTA). ATP Km apparent is previously determined using a Z′-LYTE® assay.
(§3) Each compound was incubated at a concentration of 100 nM (excepted to test the activity against ABL and ABL T315I for which the compounds were incubated at a concentration of 10 μM) and the tables B1 to B12 summarize the results obtained showing the inhibitory power of a compound. The inhibitory activity of OR0512 was also investigated using the same assays and the kinases for which activity was inhibited at more than 50% at the concentration of 100 nM of OR0512 are listed in the table B13.

BRAF = molecular target: T2, BRAF (Homo sapiens, UniProt P15056); test: In vitro kinase assay (Z′-LYTE); format: biochemical; conditions: compound 100 nM; ATP 100 μM; read-out: % of inhibition of the kinase compared to the control
T2 construct: purchased Invitrogen
Description: as §1, §2, §3

EGFR (ErbB1) = molecular target: T3, EGFR (ErbB1) (Homo sapiens, UniProt P00533); test: In vitro kinase assay (Z′-LYTE); format: biochemical; conditions: read-out: % of inhibition of the kinase compared to the control
T3 construct: purchased Invitrogen
T3 sequence (P00533 25-1210): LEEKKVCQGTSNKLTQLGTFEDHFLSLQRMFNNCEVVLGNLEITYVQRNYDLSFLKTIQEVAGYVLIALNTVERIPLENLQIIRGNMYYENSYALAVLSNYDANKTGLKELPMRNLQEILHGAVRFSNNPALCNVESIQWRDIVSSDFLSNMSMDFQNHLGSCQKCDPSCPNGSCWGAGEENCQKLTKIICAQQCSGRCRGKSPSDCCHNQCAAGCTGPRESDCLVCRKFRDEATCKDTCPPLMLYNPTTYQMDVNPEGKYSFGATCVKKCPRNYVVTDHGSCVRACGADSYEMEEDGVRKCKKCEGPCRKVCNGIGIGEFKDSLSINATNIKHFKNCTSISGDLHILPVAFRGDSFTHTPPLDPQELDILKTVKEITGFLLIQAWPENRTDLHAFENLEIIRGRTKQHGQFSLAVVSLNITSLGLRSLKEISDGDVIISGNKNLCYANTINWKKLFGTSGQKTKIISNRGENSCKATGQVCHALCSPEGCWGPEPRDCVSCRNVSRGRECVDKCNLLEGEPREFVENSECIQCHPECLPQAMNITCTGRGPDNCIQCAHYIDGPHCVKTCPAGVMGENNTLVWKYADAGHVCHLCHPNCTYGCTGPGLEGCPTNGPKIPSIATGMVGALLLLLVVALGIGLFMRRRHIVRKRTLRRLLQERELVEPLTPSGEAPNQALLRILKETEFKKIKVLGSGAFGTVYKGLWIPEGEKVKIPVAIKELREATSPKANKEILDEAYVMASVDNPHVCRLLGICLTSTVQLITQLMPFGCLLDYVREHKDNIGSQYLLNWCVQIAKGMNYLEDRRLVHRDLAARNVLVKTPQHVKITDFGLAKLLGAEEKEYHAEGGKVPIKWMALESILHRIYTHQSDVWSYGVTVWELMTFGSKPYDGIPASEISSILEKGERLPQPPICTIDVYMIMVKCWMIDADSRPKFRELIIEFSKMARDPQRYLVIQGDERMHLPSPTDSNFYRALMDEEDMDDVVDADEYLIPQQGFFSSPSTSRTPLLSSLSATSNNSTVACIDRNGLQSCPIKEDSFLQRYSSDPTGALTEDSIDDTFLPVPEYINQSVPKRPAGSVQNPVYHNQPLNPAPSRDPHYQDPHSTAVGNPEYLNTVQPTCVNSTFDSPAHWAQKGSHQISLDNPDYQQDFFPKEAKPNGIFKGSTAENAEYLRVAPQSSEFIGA
Description: as §1, §2, §3

EGFR (ErbB1) T790M L858R = molecular target: T4, EGFR (ErbB1) T790M L858R (Homo sapiens, UniProt P00533, L858R/T790M); test: In vitro kinase assay (Z′-LYTE); format: biochemical; conditions: read-out: % of inhibition of the kinase compared to the control
T4 construct: purchased Invitrogen
T4 sequence (P00533 25-1210 T790M/L858R): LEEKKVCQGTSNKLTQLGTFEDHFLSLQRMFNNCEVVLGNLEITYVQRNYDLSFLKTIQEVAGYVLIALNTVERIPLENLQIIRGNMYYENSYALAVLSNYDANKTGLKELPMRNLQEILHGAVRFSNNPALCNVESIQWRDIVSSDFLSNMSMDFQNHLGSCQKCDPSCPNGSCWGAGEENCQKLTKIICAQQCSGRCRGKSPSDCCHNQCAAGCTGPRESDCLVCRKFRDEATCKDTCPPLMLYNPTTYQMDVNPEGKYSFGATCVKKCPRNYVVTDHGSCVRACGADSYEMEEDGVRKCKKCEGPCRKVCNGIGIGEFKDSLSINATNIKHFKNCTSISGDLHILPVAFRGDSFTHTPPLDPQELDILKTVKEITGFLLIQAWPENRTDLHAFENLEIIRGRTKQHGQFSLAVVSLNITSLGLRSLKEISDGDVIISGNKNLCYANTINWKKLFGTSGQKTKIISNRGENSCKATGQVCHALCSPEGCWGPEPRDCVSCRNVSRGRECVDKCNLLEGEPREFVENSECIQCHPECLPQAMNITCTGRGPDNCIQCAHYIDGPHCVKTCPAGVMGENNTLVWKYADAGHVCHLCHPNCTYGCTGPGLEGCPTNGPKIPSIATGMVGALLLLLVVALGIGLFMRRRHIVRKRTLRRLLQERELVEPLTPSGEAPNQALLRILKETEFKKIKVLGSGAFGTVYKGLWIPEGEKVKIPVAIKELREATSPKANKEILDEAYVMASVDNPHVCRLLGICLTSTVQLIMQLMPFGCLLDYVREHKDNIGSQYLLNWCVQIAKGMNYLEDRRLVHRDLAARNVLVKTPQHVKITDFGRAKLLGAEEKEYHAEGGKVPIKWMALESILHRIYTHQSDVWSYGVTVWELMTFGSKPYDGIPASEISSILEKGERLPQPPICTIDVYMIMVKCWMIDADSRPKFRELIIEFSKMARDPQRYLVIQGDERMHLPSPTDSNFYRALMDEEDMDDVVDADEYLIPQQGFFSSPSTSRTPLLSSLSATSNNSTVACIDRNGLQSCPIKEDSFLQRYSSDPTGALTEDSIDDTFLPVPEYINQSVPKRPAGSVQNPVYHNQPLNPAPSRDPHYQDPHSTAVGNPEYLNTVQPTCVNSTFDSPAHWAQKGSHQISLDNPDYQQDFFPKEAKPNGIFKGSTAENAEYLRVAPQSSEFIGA
Description: as §1, §2, §3

PDGFRB = molecular target: T5, PDGFRB (Homo sapiens, UniProt P09619); test: In vitro kinase assay (Z′-LYTE); format: biochemical; conditions: read-out: % of inhibition of the kinase compared to the control
T5 construct: purchased Invitrogen
T5 sequence (P09619 33-1106): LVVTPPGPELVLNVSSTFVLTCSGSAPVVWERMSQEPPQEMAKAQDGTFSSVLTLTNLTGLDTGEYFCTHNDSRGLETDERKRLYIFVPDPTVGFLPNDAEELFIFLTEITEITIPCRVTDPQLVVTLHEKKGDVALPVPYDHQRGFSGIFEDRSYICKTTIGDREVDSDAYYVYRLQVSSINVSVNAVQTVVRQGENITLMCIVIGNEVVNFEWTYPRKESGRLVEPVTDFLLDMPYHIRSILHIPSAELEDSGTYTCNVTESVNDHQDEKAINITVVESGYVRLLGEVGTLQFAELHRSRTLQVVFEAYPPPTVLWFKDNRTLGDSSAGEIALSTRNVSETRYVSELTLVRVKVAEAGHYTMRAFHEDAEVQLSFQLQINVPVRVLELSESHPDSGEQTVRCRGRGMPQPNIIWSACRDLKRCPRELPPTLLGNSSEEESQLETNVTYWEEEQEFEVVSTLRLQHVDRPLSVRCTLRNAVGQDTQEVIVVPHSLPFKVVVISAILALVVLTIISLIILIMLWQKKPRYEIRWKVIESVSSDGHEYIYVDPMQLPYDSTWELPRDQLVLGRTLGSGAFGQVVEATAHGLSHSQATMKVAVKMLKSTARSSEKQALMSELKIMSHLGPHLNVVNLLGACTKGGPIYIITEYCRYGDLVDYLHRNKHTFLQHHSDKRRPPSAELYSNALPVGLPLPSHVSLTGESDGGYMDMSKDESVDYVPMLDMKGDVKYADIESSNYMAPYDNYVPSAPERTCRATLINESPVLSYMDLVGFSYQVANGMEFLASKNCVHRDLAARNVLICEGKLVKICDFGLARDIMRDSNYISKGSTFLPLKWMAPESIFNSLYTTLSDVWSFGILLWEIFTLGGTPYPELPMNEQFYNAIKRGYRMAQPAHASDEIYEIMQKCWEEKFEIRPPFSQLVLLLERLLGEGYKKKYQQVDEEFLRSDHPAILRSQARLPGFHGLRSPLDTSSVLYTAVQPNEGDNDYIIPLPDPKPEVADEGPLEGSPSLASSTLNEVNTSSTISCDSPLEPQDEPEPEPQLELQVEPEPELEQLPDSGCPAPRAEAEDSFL
Description: as §1, §2, §3

ABL = molecular target: T6, ABL (Homo sapiens, UniProt P00519); test: In vitro kinase assay (Z′-LYTE); format: biochemical; conditions: read-out: % of inhibition of the kinase compared to the control
T6 construct: purchased Invitrogen
Description: as §1, §2, §3

FGFR1 = molecular target: T7, FGFR1 (Homo sapiens, UniProt P11362); test: In vitro kinase assay (Z′-LYTE); format: biochemical; conditions: read-out: % of inhibition of the kinase compared to the control
T7 construct: purchased Invitrogen
Description: as §1, §2, §3

PDGFRA (PDGFR alpha) = molecular target: T8, PDGFRA (PDGFR alpha) (Homo sapiens, UniProt P16234); test: In vitro kinase assay (Z′-LYTE); format: biochemical; conditions: read-out: % of inhibition of the kinase compared to the control
T8 construct: purchased Invitrogen
Description: as §1, §2, §3

FGFR2 = molecular target: T9, FGFR2 (Homo sapiens, UniProt P21802); test: In vitro kinase assay (Z′-LYTE); format: biochemical; conditions: read-out: % of inhibition of the kinase compared to the control
T9 construct: purchased Invitrogen
Description: as §1, §2, §3

ABL T315I = molecular target: T10, ABL T315I (Homo sapiens, UniProt P00519, T315I); test: In vitro kinase assay (Z′-LYTE); format: biochemical; conditions: read-out: % of inhibition of the kinase compared to the control
T10 construct: purchased Invitrogen
Description: as §1, §2, §3

VEGFR1 = molecular target: T11, VEGFR1 (Homo sapiens, UniProt P17948); test: In vitro kinase assay (Z′-LYTE); format: biochemical; conditions: read-out: % of inhibition of the kinase compared to the control
T11 construct: purchased Invitrogen
T11 sequence (P17948 27-1338): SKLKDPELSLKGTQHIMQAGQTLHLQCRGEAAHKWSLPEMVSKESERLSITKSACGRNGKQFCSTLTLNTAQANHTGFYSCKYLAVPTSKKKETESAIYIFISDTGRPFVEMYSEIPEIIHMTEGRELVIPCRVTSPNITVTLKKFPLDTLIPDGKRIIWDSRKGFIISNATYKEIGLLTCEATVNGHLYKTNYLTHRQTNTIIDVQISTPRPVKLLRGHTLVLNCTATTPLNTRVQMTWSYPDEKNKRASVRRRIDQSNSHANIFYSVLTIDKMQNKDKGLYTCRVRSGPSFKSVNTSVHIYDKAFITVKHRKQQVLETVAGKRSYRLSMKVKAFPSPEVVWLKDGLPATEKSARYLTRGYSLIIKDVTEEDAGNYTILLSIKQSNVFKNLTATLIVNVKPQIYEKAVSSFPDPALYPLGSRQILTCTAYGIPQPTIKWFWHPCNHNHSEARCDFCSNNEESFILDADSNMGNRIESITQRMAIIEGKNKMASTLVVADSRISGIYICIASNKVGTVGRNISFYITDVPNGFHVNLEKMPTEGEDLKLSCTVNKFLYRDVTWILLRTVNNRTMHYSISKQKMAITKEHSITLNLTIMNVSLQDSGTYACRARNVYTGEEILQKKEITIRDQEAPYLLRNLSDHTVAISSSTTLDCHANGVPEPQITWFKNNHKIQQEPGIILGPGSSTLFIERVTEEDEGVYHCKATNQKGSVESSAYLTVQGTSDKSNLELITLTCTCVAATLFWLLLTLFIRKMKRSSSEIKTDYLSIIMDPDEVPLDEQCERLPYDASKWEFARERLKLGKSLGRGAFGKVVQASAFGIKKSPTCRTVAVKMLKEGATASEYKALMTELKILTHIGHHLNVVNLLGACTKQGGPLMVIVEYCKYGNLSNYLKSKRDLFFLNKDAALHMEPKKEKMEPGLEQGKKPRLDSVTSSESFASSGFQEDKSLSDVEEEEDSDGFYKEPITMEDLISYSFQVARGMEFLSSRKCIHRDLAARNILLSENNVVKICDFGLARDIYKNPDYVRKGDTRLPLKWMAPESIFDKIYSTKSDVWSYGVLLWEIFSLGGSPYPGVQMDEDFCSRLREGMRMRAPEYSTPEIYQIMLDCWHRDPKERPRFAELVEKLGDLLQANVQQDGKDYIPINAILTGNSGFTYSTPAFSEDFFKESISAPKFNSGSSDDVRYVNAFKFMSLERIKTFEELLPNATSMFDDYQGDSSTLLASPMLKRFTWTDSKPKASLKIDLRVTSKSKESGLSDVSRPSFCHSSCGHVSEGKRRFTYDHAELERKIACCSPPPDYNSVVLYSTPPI
Description: as §1, §2, §3

KDR (VEGFR2) = molecular target: T12, KDR (VEGFR2) (Homo sapiens, UniProt P35968); test: In vitro kinase assay (Z′-LYTE); format: biochemical; conditions: read-out: % of inhibition of the kinase compared to the control
T12 construct: purchased Invitrogen
Description: as §1, §2, §3

HT29 = test: In vitro cell proliferation assay (MTT); format: cell-based; conditions: Homo sapiens, HT-29, 72 h
Description: (§4) Cancer cell lines (5×10^3 cells per well) or HUVEC (1×10^4 cells per well) or HRMEC (1×10^4 cells per well) were distributed in 96-well plates and incubating in duplicate with escalating concentrations (10 nM to 3 μM) of compounds for 72 hr. Cell proliferation was measured using MTT (3 [4,5-dimethylthiazol-2-yl]-2,5-diphenyltetrazolium bromide).

BxPC-3 = test: In vitro cell proliferation assay (MTT); format: cell-based; conditions: Homo sapiens, BXPC-3, 72 h
Description: as §4

H1975 = test: In vitro cell proliferation assay (MTT); format: cell-based; conditions: Homo sapiens, NCI-H1975, 72 h
Description: as §4

HUVEC = test: In vitro cell proliferation assay (MTT); format: cell-based; conditions: Homo sapiens, 72 h
Description: as §4

HepG2 = test: In vitro cell proliferation assay (MTT); format: cell-based; conditions: Homo sapiens, HepG2, 72 h
Description: as §4

A549 = test: In vitro cell proliferation assay (MTT); format: cell-based; conditions: Homo sapiens, A549, 72 h
Description: as §4

HuCCT1 = test: In vitro cell proliferation assay (MTT); format: cell-based; conditions: Homo sapiens, HuCCT-1, 72 h
Description: as §4

HuH7 = test: In vitro cell proliferation assay (MTT); format: cell-based; conditions: Homo sapiens, Huh-7, 72 h
Description: as §4

HeLa = test: In vitro cell proliferation assay (MTT); format: cell-based; conditions: Homo sapiens, 72 h
Description: as §4

MDA-MB-231 = test: In vitro cell proliferation assay (MTT); format: cell-based; conditions: Homo sapiens, MDA-MB-231, 72 h
Description: as §4

SMILES	inhibition at 0.1 µM (SRC)	inhibition at 0.1 µM (BRAF)	inhibition at 0.1 µM (EGFR (ErbB1))	inhibition at 0.1 µM (PDGFRA (PDGFR alpha))	inhibition at 0.1 µM (FGFR2)	inhibition at 0.1 µM (KDR (VEGFR2))	EC50 (HUVEC)	EC50 (HepG2)	EC50 (A549)	EC50 (HuH7)	EC50 (HeLa)	other results
COC(=O)c1cc2cc(NCc3cc(NC(=O)c4cccc(C)c4)ccc3C)cnc2[nH]1 [OR0607]	≥ 50%	≥ 50%	< 50%	≥ 50%	< 50%	≥ 50%	≤ 100 nM	100 to 1000 nM	100 to 1000 nM			inhibition at 0.1 µM (EGFR (ErbB1) T790M L858R): < 50%; inhibition at 0.1 µM (PDGFRB): ≥ 50%; inhibition at 10 µM (ABL): ≥ 50%; inhibition at 0.1 µM (FGFR1): < 50%; inhibition at 10 µM (ABL T315I): < 50%; inhibition at 0.1 µM (VEGFR1): < 50%; EC50 (HT29): 100 to 1000 nM; EC50 (BxPC-3): 100 to 1000 nM; EC50 (H1975): 100 to 1000 nM; EC50 (HuCCT1): 100 to 1000 nM
COC(=O)c1cc2cc(NCc3cc(NC(=O)Cc4ccccc4Br)ccc3C)cnc2[nH]1 [OR0599]	≥ 50%	≥ 50%	< 50%	≥ 50%	< 50%	< 50%	100 to 1000 nM	100 to 1000 nM	100 to 1000 nM			inhibition at 0.1 µM (EGFR (ErbB1) T790M L858R): < 50%; inhibition at 0.1 µM (PDGFRB): ≥ 50%; inhibition at 10 µM (ABL): ≥ 50%; inhibition at 0.1 µM (FGFR1): < 50%; inhibition at 10 µM (ABL T315I): < 50%; inhibition at 0.1 µM (VEGFR1): < 50%; EC50 (HT29): ≥ 1000 nM; EC50 (BxPC-3): ≥ 1000 nM; EC50 (H1975): 100 to 1000 nM; EC50 (HuCCT1): ≥ 1000 nM
COC(=O)c1cc2cc(NCc3cc(NC(=O)c4ccc(O)c(C(F)(F)F)c4)ccc3C)cnc2[nH]1 [OR0605]	≥ 50%	< 50%	≥ 50%	≥ 50%	< 50%	< 50%				100 to 1000 nM		inhibition at 0.1 µM (EGFR (ErbB1) T790M L858R): < 50%; inhibition at 0.1 µM (PDGFRB): < 50%; inhibition at 10 µM (ABL): ≥ 50%; inhibition at 0.1 µM (FGFR1): < 50%; inhibition at 10 µM (ABL T315I): < 50%; inhibition at 0.1 µM (VEGFR1): < 50%; EC50 (BxPC-3): ≥ 1000 nM
COC(=O)c1cc2cc(NCc3cc(NC(=O)c4ccc(Cl)c(C(F)(F)F)c4)ccc3C)cnc2[nH]1 [OR0871]	≥ 50%	< 50%	≥ 50%	≥ 50%	< 50%	< 50%	100 to 1000 nM	100 to 1000 nM		100 to 1000 nM		
COC(=O)c1cc2cc(NCc3cccc(NC(=O)c4ccc(CN5CCN(C)CC5)c(C(F)(F)F)c4)c3)cnc2[nH]1 [OR1067]	≥ 50%	< 50%	≥ 50%	≥ 50%	≥ 50%	≥ 50%	≤ 100 nM	≥ 1000 nM	100 to 1000 nM		100 to 1000 nM	
COC(=O)c1cc2cc(NCc3cc(NC(=S)Nc4cccc(C(F)(F)F)c4)ccc3C)cnc2[nH]1 [OR1016]		< 50%	< 50%			< 50%	≥ 1000 nM	100 to 1000 nM	≥ 1000 nM		≥ 1000 nM	EC50 (MDA-MB-231): 100 to 1000 nM
COC(=O)c1cc2cc(NC(=O)c3cccc(CNC(=S)c4cccc(C(F)(F)F)c4)c3)cnc2[nH]1 [OR1011]		< 50%	< 50%	< 50%	< 50%	< 50%	≥ 1000 nM	≥ 1000 nM	≥ 1000 nM		≥ 1000 nM	EC50 (MDA-MB-231): ≥ 1000 nM
COC(=O)c1cc2cc(NCc3cc(NS(=O)(=O)c4cccc(C(F)(F)F)c4)ccc3C)cnc2[nH]1 [OR0882]		< 50%	< 50%	< 50%	< 50%	< 50%	≥ 1000 nM	≥ 1000 nM		≥ 1000 nM		
COC(=O)c1cc2cc(NCc3cc(NC(=S)c4ccc(CN5CCN(C)CC5)c(C(F)(F)F)c4)ccc3C)cnc2[nH]1 [OR0626]		< 50%	≥ 50%		≥ 50%	< 50%	≥ 1000 nM	≥ 1000 nM	≥ 1000 nM		≥ 1000 nM	EC50 (MDA-MB-231): 100 to 1000 nM
COC(=O)c1cc2cc(NCc3cc(NC(=O)c4ccc(CN5CCN(C)CC5)c(C(F)(F)F)c4)ccc3F)cnc2[nH]1 [OR0816]	≥ 50%	< 50%	≥ 50%	≥ 50%	≥ 50%	≥ 50%	≤ 100 nM	100 to 1000 nM		100 to 1000 nM		
COC(=O)c1cc2cc(NCc3cc(NC(=O)c4ccnc(C(F)(F)F)c4)ccc3C)cnc2[nH]1 [OR0866]		< 50%	< 50%	< 50%	< 50%	< 50%	100 to 1000 nM	100 to 1000 nM		≥ 1000 nM		
COC(=O)c1cc2cc(NCc3cc(NC(=O)c4ccnc(C)c4)ccc3C)cnc2[nH]1 [OR0868]		≥ 50%	< 50%		< 50%	< 50%	100 to 1000 nM	≥ 1000 nM		≥ 1000 nM		
COC(=O)c1cc2cc(NCc3cc(NC(=O)c4ccc5c(c4)OCO5)ccc3C)cnc2[nH]1 [OR0615]	≥ 50%	≥ 50%	< 50%	≥ 50%	< 50%	≥ 50%	100 to 1000 nM	≥ 1000 nM	≥ 1000 nM			inhibition at 0.1 µM (EGFR (ErbB1) T790M L858R): < 50%; inhibition at 0.1 µM (PDGFRB): ≥ 50%; inhibition at 10 µM (ABL): ≥ 50%; inhibition at 0.1 µM (FGFR1): < 50%; inhibition at 10 µM (ABL T315I): < 50%; inhibition at 0.1 µM (VEGFR1): < 50%; EC50 (HT29): ≥ 1000 nM; EC50 (BxPC-3): ≥ 1000 nM; EC50 (H1975): ≥ 1000 nM; EC50 (HuCCT1): ≥ 1000 nM
COC(=O)c1cc2cc(NCc3cc(NC(=O)c4ccc(C)c(C(F)(F)F)c4)ccc3C)cnc2[nH]1 [OR0869]	≥ 50%	< 50%	≥ 50%	< 50%	< 50%	< 50%	100 to 1000 nM	≥ 1000 nM		100 to 1000 nM		
COC(=O)c1cc2cc(NCc3cc(NC(=O)c4ccc(C(F)(F)F)nc4)ccc3C)cnc2[nH]1 [OR0865]		≥ 50%	≥ 50%		< 50%	< 50%	100 to 1000 nM	100 to 1000 nM		≥ 1000 nM		
COC(=O)c1cc2cc(NCc3cc(NC(=O)Nc4ccncc4)ccc3C)cnc2[nH]1 [OR0952]		< 50%	< 50%	< 50%	< 50%	< 50%	≥ 1000 nM	≥ 1000 nM	≥ 1000 nM		≥ 1000 nM	EC50 (MDA-MB-231): ≥ 1000 nM
